Source: PMC10257182, “Discovery of senolytics using machine learning” (Nature Communications, 2023)
Values joined by “and” are separate entries in the source; they are usually repeats but may differ in a detail not shown here. Equal values may be shown once. Where a name gives a salt, the structure may show the parent alone. Read-outs that look alike come from different tables or passages of the source.

System: non-senescent control IMR90 ER:RAS cells
Experiment: Nuclei count (Hoechst, high content imaging) senolytic assay, OIS model, non-senescent control cells
Type: cell-based, human
Summary of the method: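 We compared total nuclei counts between senescent and non-senescent IMR90 ER:RAS cells after 72 h compound exposure (10 nM–10 μM). Hoechst staining followed fixation and permeabilisation; ouabain served as senolytic positive control.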

[1] = Homo sapiens, IMR-90, 72 h, Control, log (dose) [M] -5, 72 h, mean n=3 (Fig 3C), read-out: Mean % Cell Survival
[2] = Homo sapiens, IMR-90, 72 h, Control, log (dose) [M] -5.33, 72 h, mean n=3 (Fig 3C), read-out: Mean % Cell Survival
[3] = Homo sapiens, IMR-90, 72 h, Control, log (dose) [M] -5.66, 72 h, mean n=3 (Fig 3C), read-out: Mean % Cell Survival
[4] = Homo sapiens, IMR-90, 72 h, Control, log (dose) [M] -6, 72 h, mean n=3 (Fig 3C), read-out: Mean % Cell Survival
[5] = Homo sapiens, IMR-90, 72 h, Control, log (dose) [M] -6.33, 72 h, mean n=3 (Fig 3C), read-out: Mean % Cell Survival
[6] = Homo sapiens, IMR-90, 72 h, Control, log (dose) [M] -6.66, 72 h, mean n=3 (Fig 3C), read-out: Mean % Cell Survival
[7] = Homo sapiens, IMR-90, 72 h, Control, log (dose) [M] -7, 72 h, mean n=3 (Fig 3C), read-out: Mean % Cell Survival
[8] = Homo sapiens, IMR-90, 72 h, Control, log (dose) [M] -7.33, 72 h, mean n=3 (Fig 3C), read-out: Mean % Cell Survival
[9] = Homo sapiens, IMR-90, 72 h, Control, log (dose) [M] -7.66, 72 h, mean n=3 (Fig 3C), read-out: Mean % Cell Survival
[10] = Homo sapiens, IMR-90, 72 h, Control, log (dose) [M] -8, 72 h, mean n=3 (Fig 3C), read-out: Mean % Cell Survival
[11] = Homo sapiens, IMR-90, Control cells, log (dose) [M] -7.33, individual replicates, SUP FIG 4C, read-out: % Cell Survival
[12] = Homo sapiens, IMR-90, Control cells, log (dose) [M] -8, individual replicates, SUP FIG 4C, read-out: % Cell Survival
[13] = Homo sapiens, IMR-90, Control, log (dose) [M] -5.33, read-out: % Cell Survival
[14] = Homo sapiens, IMR-90, Control, log (dose) [M] -5.66, read-out: % Cell Survival
[15] = Homo sapiens, IMR-90, Control, log (dose) [M] -6.33, read-out: % Cell Survival

C=Cc1c(C)c2cc3nc(cc4[nH]c(cc5nc(cc1[nH]2)C(C)=C5CCC(=O)O)c(CCC(=O)OC)c4C)[C@@]1(C)C3=CC=C(C(=O)OC)[C@H]1C(=O)OC [Verteporfin, verteporfin, reference compound]
% Cell Survival (Control cells, log (dose) [M] -5, individual replicates, SUP FIG 4C): 101.159% and 129.718% and 89.9175%
% Cell Survival (Control cells, log (dose) [M] -5.33, individual replicates, SUP FIG 4C): 94.2029% and 128.701% and 95.0504%
% Cell Survival (Control cells, log (dose) [M] -5.66, individual replicates, SUP FIG 4C): 94.8792% and 127.571% and 91.1091%
% Cell Survival (Control cells, log (dose) [M] -6, individual replicates, SUP FIG 4C): 109.082% and 120% and 89.2759%
% Cell Survival (Control cells, log (dose) [M] -6.33, individual replicates, SUP FIG 4C): 132.367% and 79.661% and 117.324%
% Cell Survival (Control cells, log (dose) [M] -6.66, individual replicates, SUP FIG 4C): 84.5411% and 110.056% and 78.5518%
% Cell Survival (Control cells, log (dose) [M] -7, individual replicates, SUP FIG 4C): 102.222% and 109.492% and 85.1512%
% Cell Survival (Control cells, log (dose) [M] -7.33, individual replicates, SUP FIG 4C): 97.1981% and 115.141% and 84.143%
% Cell Survival (Control cells, log (dose) [M] -7.66, individual replicates, SUP FIG 4C): 102.705% and 116.158% and 105.408%
% Cell Survival (Control cells, log (dose) [M] -8, individual replicates, SUP FIG 4C): 88.6957% and 107.684% and 93.9505%
Mean % Cell Survival (Control, log (dose) [M] -5, 72 h, mean n=3 (Fig 3C)): 106.931%
Mean % Cell Survival (Control, log (dose) [M] -5.33, 72 h, mean n=3 (Fig 3C)): 105.985%
Mean % Cell Survival (Control, log (dose) [M] -5.66, 72 h, mean n=3 (Fig 3C)): 104.52%
Mean % Cell Survival (Control, log (dose) [M] -6, 72 h, mean n=3 (Fig 3C)): 106.119%
Mean % Cell Survival (Control, log (dose) [M] -6.33, 72 h, mean n=3 (Fig 3C)): 109.784%
Mean % Cell Survival (Control, log (dose) [M] -6.66, 72 h, mean n=3 (Fig 3C)): 91.0498%
Mean % Cell Survival (Control, log (dose) [M] -7, 72 h, mean n=3 (Fig 3C)): 98.955%
Mean % Cell Survival (Control, log (dose) [M] -7.33, 72 h, mean n=3 (Fig 3C)): 98.8274%
Mean % Cell Survival (Control, log (dose) [M] -7.66, 72 h, mean n=3 (Fig 3C)): 108.09%
Mean % Cell Survival (Control, log (dose) [M] -8, 72 h, mean n=3 (Fig 3C)): 96.7766%
% Cell Survival (Control, log (dose) [M] -5): 103.991% and 103.701% and 133.622%
% Cell Survival (Control, log (dose) [M] -5.33): 95.6459% and 122.354% and 108.369%
% Cell Survival (Control, log (dose) [M] -5.66): 83.672% and 98.7417% and 101.948%
% Cell Survival (Control, log (dose) [M] -6): 86.9376% and 90.2295% and 99.9278%
% Cell Survival (Control, log (dose) [M] -6.33): 101.524% and 93.2642% and 93.3622%
% Cell Survival (Control, log (dose) [M] -6.66): 98.4035% and 102.221% and 102.958%
% Cell Survival (Control, log (dose) [M] -7): 87.0827% and 92.5981% and 92.8571%
% Cell Survival (Control, log (dose) [M] -7.33): 115.893% and 95.1147% and 114.069%
% Cell Survival (Control, log (dose) [M] -7.66): 103.991% and 94.8187% and 102.958%
% Cell Survival (Control, log (dose) [M] -8): 101.306% and 100.444% and 92.0635%

CC[C@]1(O)C[C@@H]2CN(CCc3c([nH]c4ccccc34)[C@@](C(=O)OC)(c3cc4c(cc3OC)N(C)[C@H]3[C@@](O)(C(=O)OC)[C@H](OC(C)=O)[C@]5(CC)C=CCN6CC[C@]43[C@@H]65)C2)C1 [Vinblastine sulfate, vinblastine sulfate, reference compound]
viability at 10 µM [1]: 51.7%
viability at 4.677 µM [2]: 55.1%
viability at 2.188 µM [3]: 57.9%
viability at 1 µM [4]: 76.4%
viability at 0.4677 µM [5]: 76.9%
viability at 0.2188 µM [6]: 80.8%
viability at 0.1 µM [7]: 104%
viability at 0.04677 µM [8]: 112%
viability at 0.02188 µM [9]: 104%
viability at 0.01 µM [10]: 105%
viability at 0.04677 µM [11]: 114%
viability at 0.01 µM [12]: 102%
viability at 10 µM (Homo sapiens, IMR-90, Control, log (dose) [M] -5, read-out: % Cell Survival): 46.8%
viability at 4.68 µM [13]: 42.3%
viability at 2.19 µM [14]: 47.6%
viability at 1 µM (Homo sapiens, IMR-90, Control, log (dose) [M] -6, read-out: % Cell Survival): 41.3%
viability at 0.468 µM [15]: 41.5%

CO[C@H]1C[C@@H]2CC[C@@H](C)[C@@](O)(O2)C(=O)C(=O)N2CCCC[C@H]2C(=O)O[C@H]([C@H](C)C[C@@H]2CC[C@H](n3cnnn3)[C@H](OC)C2)CC(=O)[C@H](C)/C=C(\C)[C@@H](O)[C@@H](OC)C(=O)[C@H](C)C[C@H](C)/C=C/C=C/C=C/1C [Zotarolimus, zotarolimus, reference compound]
viability at 10 µM [1]: 94.7%
viability at 4.677 µM [2]: 101%
viability at 2.188 µM [3]: 84.8%
viability at 1 µM [4]: 104%
viability at 0.4677 µM [5]: 108%
viability at 0.2188 µM [6]: 99.6%
viability at 0.1 µM [7]: 95.5%
viability at 0.04677 µM [8]: 105%
viability at 0.02188 µM [9]: 110%
viability at 0.01 µM [10]: 98.2%
viability at 4.677 µM (Homo sapiens, IMR-90, Control cells, log (dose) [M] -5.33, individual replicates, SUP FIG 4C, read-out: % Cell Survival): 107%
viability at 1 µM (Homo sapiens, IMR-90, Control cells, log (dose) [M] -6, individual replicates, SUP FIG 4C, read-out: % Cell Survival): 109%
viability at 0.2188 µM (Homo sapiens, IMR-90, Control cells, log (dose) [M] -6.66, individual replicates, SUP FIG 4C, read-out: % Cell Survival): 99.3%
viability at 0.1 µM (Homo sapiens, IMR-90, Control cells, log (dose) [M] -7, individual replicates, SUP FIG 4C, read-out: % Cell Survival): 91%
viability at 0.04677 µM [11]: 102%
viability at 0.02188 µM (Homo sapiens, IMR-90, Control cells, log (dose) [M] -7.66, individual replicates, SUP FIG 4C, read-out: % Cell Survival): 111%
viability at 0.01 µM [12]: 93.6%
viability at 4.68 µM [13]: 92.8%
viability at 2.19 µM [14]: 83.4%
viability at 0.468 µM [15]: 93.7%
viability at 0.219 µM (Homo sapiens, IMR-90, Control, log (dose) [M] -6.66, read-out: % Cell Survival): 88.1%
viability at 0.1 µM (Homo sapiens, IMR-90, Control, log (dose) [M] -7, read-out: % Cell Survival): 98.7%
viability at 0.04677 µM (Homo sapiens, IMR-90, Control, log (dose) [M] -7.33, read-out: % Cell Survival): 99.6%
viability at 0.0219 µM (Homo sapiens, IMR-90, Control, log (dose) [M] -7.66, read-out: % Cell Survival): 85.6%
viability at 0.01 µM (Homo sapiens, IMR-90, Control, log (dose) [M] -8, read-out: % Cell Survival): 99.5%
